PubChem BioAssay AID624303 (The Scripps Research Institute Molecular Screening Center, 2012)
Calls of active or inactive are those of the source.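 How the source made its calls: active means inhibition of at least 2%; inactive means inhibition below 2%.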

What follows are compounds tested against Tyrosine-protein kinase ABL1 (Homo sapiens) (UniProt P00519) (assay: reduction of ABL1-mediated CRK phosphorylation – biochemical, purified CRK substrate, chemiluminescent immunoblot, powders, round 1, RIN1-ABL interaction inhibitor project, late-stage follow-up (AID 624303)). Details: purified ABL1 phosphorylating CRK, anti-pTyr chemiluminescence blot; at 10 µM; hits give high values.
Tyrosine-protein kinase ABL1 (Homo sapiens), sequence (P00519 whole entry, looked up): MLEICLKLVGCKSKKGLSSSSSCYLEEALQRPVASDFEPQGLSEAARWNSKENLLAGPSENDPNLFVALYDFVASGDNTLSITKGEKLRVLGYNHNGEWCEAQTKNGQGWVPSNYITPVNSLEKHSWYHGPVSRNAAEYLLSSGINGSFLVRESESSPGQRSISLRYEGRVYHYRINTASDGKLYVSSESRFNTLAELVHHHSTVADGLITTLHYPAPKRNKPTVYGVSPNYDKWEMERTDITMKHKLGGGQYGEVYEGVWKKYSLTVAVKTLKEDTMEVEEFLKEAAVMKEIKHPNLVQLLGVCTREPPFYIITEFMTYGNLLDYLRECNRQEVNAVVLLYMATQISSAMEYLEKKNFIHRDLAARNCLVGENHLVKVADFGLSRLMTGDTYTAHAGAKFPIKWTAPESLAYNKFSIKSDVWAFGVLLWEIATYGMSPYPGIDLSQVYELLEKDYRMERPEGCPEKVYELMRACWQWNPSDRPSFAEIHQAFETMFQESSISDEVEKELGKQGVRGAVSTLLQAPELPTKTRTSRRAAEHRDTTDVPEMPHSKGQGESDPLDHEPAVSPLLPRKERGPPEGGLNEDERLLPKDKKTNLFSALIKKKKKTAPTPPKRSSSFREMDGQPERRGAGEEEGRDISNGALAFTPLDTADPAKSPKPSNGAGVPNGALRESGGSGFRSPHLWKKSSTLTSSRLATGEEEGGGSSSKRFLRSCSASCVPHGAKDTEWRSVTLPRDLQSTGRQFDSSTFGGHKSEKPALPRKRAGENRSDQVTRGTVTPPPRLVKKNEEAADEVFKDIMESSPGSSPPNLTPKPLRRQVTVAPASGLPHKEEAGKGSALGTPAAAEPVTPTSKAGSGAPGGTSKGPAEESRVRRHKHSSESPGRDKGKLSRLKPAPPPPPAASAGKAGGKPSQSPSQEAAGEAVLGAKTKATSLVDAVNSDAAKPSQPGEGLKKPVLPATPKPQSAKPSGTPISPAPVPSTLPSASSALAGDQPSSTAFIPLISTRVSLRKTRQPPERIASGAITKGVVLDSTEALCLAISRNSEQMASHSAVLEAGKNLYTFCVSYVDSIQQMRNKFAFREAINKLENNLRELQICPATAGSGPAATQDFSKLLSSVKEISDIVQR
With `CN(C(=O)c1ccc(NC(=O)Cc2ccc(NC(=O)C3CCN(C(=O)c4ccccc4)CC3)cc2)cc1)C1CC1` the inhibition was 0% (inactive). With `O=C(Cc1ccc(NC(=O)C2CCN(C(=O)c3ccccc3)CC2)cc1)Nc1ccc(C(=O)N2CCOCC2)cc1` the inhibition was 0% (inactive). For `CN(C(=O)c1ccc(NC(=O)Cc2ccc(NC(=O)C3CCN(C(=O)c4cccc(F)c4)CC3)cc2)cc1)C1CC1`, the inhibition was 0% (inactive). For `COc1cccc(CSc2nnc(CSc3nc4nc(C)cc(C)n4n3)s2)c1`, the inhibition was 0% (inactive). With `O=C(Cc1ccc(NC(=O)C2CCN(C(=O)C3CCCCC3)CC2)cc1)Nc1ccc(C(=O)N2CCOCC2)cc1` the inhibition was 0% (inactive). In the case of `Cn1c(=O)c2c(nc(-n3ccnc3)n2Cc2ccc(Cl)cc2Cl)n(C)c1=O`, the inhibition is reported as 0% (inactive). `COc1ccc(CCNc2cc(=O)[nH]c(N)n2)cc1` was tested, and the inhibition was 0% (inactive). `Cc1c(C(=O)NCC(c2ccco2)N(C)C)oc2c(Cl)cccc12` (configuration not stated) was tested, and the inhibition was 0% (inactive). `CN(CCc1ccccc1)C(=O)c1ccc(NC(=O)Cc2ccc(NC(=O)C3CCN(C(=O)c4ccccc4)CC3)cc2)cc1` was tested, and the inhibition was 0% (inactive). In the case of `CN(C(=O)c1ccc(NC(=O)Cc2ccc(NC(=O)C3CCN(C(=O)c4ccc(F)cc4)CC3)cc2)cc1)C1CC1`, the inhibition is reported as 0% (inactive). For `O=C(Cc1ccc(NC(=O)C2CCN(C(=O)C3CCCC3)CC2)cc1)Nc1ccc(C(=O)N2CCOCC2)cc1`, the inhibition was 0% (inactive). `CN(CCc1ccccc1)C(=O)c1ccc(NC(=O)Cc2ccc(NC(=O)C3CCN(C(=O)C4CCCC4)CC3)cc2)cc1` was tested, and the inhibition was 0% (inactive). In the case of `O=c1cc(OCc2ccccc2)cc[nH]1`, the inhibition is reported as 0% (inactive). For `O=C(c1cc(COc2cccc3cccnc23)on1)N1CCC[C@H]1CO`, the inhibition was 0% (inactive). For `COc1ccc(C(=O)N2CCC(C(=O)Nc3ccc(CC(=O)Nc4ccc(C(=O)N(C)C5CC5)cc4)cc3)CC2)cc1`, the inhibition was 0% (inactive). `COc1ccc2oc(C(=O)NCC(c3ccco3)N(C)C)c(C)c2c1` (configuration not stated) was tested, and the inhibition was 0% (inactive). For `CCOC(=O)N1CCN(C(=O)Nc2ccc(NC(=O)N3CCN(C(=O)OCC)CC3)cc2)CC1`, the inhibition was 0% (inactive). With `CSc1ccccc1OCc1cc(C(=O)N2CCNC(=O)C2)no1` the inhibition was 0% (inactive). `CCOC(=O)N1CCC(NC(=O)CCc2nc(C3=CCN(C)CC3)no2)CC1` was tested, and the inhibition was 0% (inactive). For `CN(Cc1c(F)cccc1Cl)C(=O)CNC(=O)c1ccc2c(c1)OCO2`, the inhibition was 0% (inactive). For `N#Cc1ccccc1Sc1ccccc1C(=O)NCC(c1ccco1)N1CCCC1` (configuration not stated), the inhibition was 0% (inactive). With `CC(=O)Nc1ccc(NC(=O)C2CCN(C(=O)c3cccs3)CC2)cc1` the inhibition was 0% (inactive).
